SMILES strings stand for the structures.

The nature of one data set: Log P by HPLC on reversed phase columns (EEC directive 79/831 Annex V.A8). The data set is classed as physicochemical.
Conditions: not given
The method, then:
Measurement of Log P values was performed according to EEC directive 79/831 Annex V.A8 by HPLC (High Performance Liquid Chromatography) on reversed phase columns with the following methods:
[^a] Log P value is determined by measurement of LC-UV, in an acidic range, with 0.1% formic acid in water and acetonitrile as eluent (linear gradient from 10% acetonitrile to 95% acetonitrile).
[^b] Log P value is determined by measurement of LC-UV, in a neutral range, with 0.001 molar ammonium acetate solution in water and acetonitrile as eluent (linear gradient from 10% acetonitrile to 95% acetonitrile).
[^c] Log P value is determined by measurement of LC-UV, in an acidic range, with 0.1% phosphoric acid and acetonitrile as eluent (linear gradient from 10% acetonitrile to 95% acetonitrile).
Calibration was done with straight-chain alkan-2-ones (with 3 to 16 carbon atoms) with known Log P values (measurement of Log P values using retention times with linear interpolation between successive alkanones). Lambda-max-values were determined using UV-spectra from 200 nm to 400 nm and the peak values of the chromatographic signals.
Regarding `C=CCOc1cc(F)c(Nc2c(-c3ccc(F)cc3Cl)c(C)nn2C)c(F)c1` [Example I-02], the “LogP [a]” value was 3.54^[a]; and the “LogP [c]” value is 3.40^[c].
Taken in the same sequence, the figures for `C#CCOc1cc(F)c(Nc2c(-c3ccc(F)cc3Cl)c(C)nn2C)c(F)c1` [Example I-03] were 3.09^[a]; and 2.90^[c].
In the case of `C=CCOc1cc(F)c(N(C)c2c(-c3ccc(F)cc3Cl)c(C)nn2C)c(F)c1` [Example I-04], the “LogP [a]” value is 4.40^[a].
Consider `C#CCOc1cc(F)cc(F)c1Nc1c(-c2ccc(Cl)cc2Cl)c(C)nn1C` [Example I-05], for which the “LogP [a]” value was 3.69^[a].
Same read-out and setting: the result for `C#CCOc1cc(F)c(Nc2c(-c3ccccc3F)c(C)nn2C)c(F)c1` [Example I-06] reads 2.78^[a]; that for `C#CCOc1cc(F)cc(F)c1Nc1c(-c2ccccc2F)c(C)nn1C` [Example I-07], 2.96^[a].
Still for that read-out and setting: the result for `C=CCOc1cc(F)c(Nc2c(-c3ccc(Cl)cc3Cl)c(C)nn2C)c(F)c1` [Example I-08] reads 3.97^[a]; that for `C#CCOc1cc(F)c(Nc2c(-c3ccc(Cl)cc3Cl)c(C)nn2C)c(F)c1` [Example I-09], 3.44^[a]; that for `C#CCOc1cc(F)c(Nc2c(-c3cc(OC)cc(OC)c3)c(C)nn2C)c(F)c1` [Example I-10], 2.73^[a].
In the case of `C=CCOc1cc(F)c(Nc2c(-c3cc(OC)cc(OC)c3)c(C)nn2C)c(F)c1` [Example I-11], the “LogP [a]” value is 3.11^[a].
Same read-out and setting: the result for `C#CCOc1cc(F)cc(F)c1Nc1c(-c2cc(OC)cc(OC)c2)c(C)nn1C` [Example I-12] reads 2.85^[a]; that for `C=CCOc1cc(F)c(Nc2c(-c3ccccc3F)c(C)nn2C)c(F)c1` [Example I-13], 3.22^[a].
Still for that read-out and setting: the result for `C#CCOc1cc(F)c(Nc2c(-c3ccc(F)cc3F)c(C)nn2C)c(F)c1` [Example I-14] reads 2.90^[a].
On the same count and under the same terms, the same measure for `C=CCOc1cc(F)c(Nc2c(-c3ccc(F)cc3F)c(C)nn2C)c(F)c1` [Example I-15]: 3.33^[a]; for `C#CCOc1cc(F)cc(F)c1Nc1c(-c2ccc(F)cc2F)c(C)nn1C` [Example I-16]: 3.07^[a].
Turning to `C#CCOc1cc(F)c(Nc2c(-c3ccc(OC)cc3F)c(C)nn2C)c(F)c1` [Example I-17], the “LogP [a]” value was 2.74^[a].
Turning to `C=CCOc1cc(F)c(Nc2c(-c3ccc(OC)cc3F)c(C)nn2C)c(F)c1` [Example I-18], the “LogP [a]” value was 3.11^[a].
For the compound `C#CCOc1cc(F)cc(F)c1Nc1c(-c2ccc(OC)cc2F)c(C)nn1C` [Example I-19], the “LogP [a]” value is 2.86^[a].
For the compound `C#CCOc1cc(F)c(Nc2c(-c3ccc(Cl)nc3)c(C)nn2C)c(F)c1` [Example I-20], the “LogP [a]” value is 2.56^[a]; and the “LogP [b]” value was 2.54^[b].
In the case of `C=CCOc1cc(F)c(Nc2c(-c3ccc(Cl)nc3)c(C)nn2C)c(F)c1` [Example I-21], the “LogP [a]” value is 2.95^[a]; and the “LogP [b]” value was 2.92^[b].
For the compound `C=CCOc1ccc(-c2c(C)nn(C)c2Nc2c(F)cc(OCC=C)cc2F)c(F)c1` [Example I-23], the “LogP [a]” value was 3.62^[a].
Regarding `C#CCOc1cc(F)c(Nc2c(-c3ccc(OCC=C)cc3F)c(C)nn2C)c(F)c1` [Example I-24], the “LogP [a]” value was 3.17^[a].
In the case of `C#CCOc1cc(F)cc(F)c1Nc1c(-c2ccc(Cl)nc2)c(C)nn1C` [Example I-25], the “LogP [a]” value is 2.69^[a]; and the “LogP [b]” value was 2.63^[b].
Regarding `C#CCOc1ccc(-c2c(C)nn(C)c2Nc2c(F)cc(F)cc2OCC#C)c(F)c1` [Example I-26], the “LogP [a]” value was 2.88^[a].
On the same count and under the same terms, the same measure for `C#CCOc1ccc(-c2c(C)nn(C)c2Nc2c(F)cc(OCC#C)cc2F)c(F)c1` [Example I-27]: 2.77^[a].
On to `C#CCOc1ccc(-c2c(C)nn(C)c2Nc2c(F)cc(OCC=C)cc2F)c(F)c1` [Example I-28], for which the “LogP [a]” value was 3.13^[a].
Turning to `C#CCOc1ccc(Nc2c(-c3ccc(F)cc3Cl)c(C)nn2C)c(F)c1` [Example I-29], the “LogP [a]” value was 3.25^[a]; and the “LogP [b]” value is 3.22^[b].
`C=CCOc1ccc(Nc2c(-c3ccc(F)cc3Cl)c(C)nn2C)cc1` [Example I-30]: the “LogP [a]” value is 3.51^[a]; and the “LogP [b]” value is 3.52^[b].
Turning to `C#CCOc1ccc(Nc2c(-c3ccc(F)cc3Cl)c(C)nn2C)cc1` [Example I-31], the “LogP [a]” value is 3.09^[a]; and the “LogP [b]” value was 3.06^[b].
In the same order, the values of `C#CCOc1ccc(Nc2c(-c3ccc(F)cc3Cl)c(C)nn2C)c(Cl)c1` [Example I-32] are 3.65^[a]; and 3.59^[b].
As for `C#CCOc1cc(F)c(Nc2c(-c3ccc(F)cc3Cl)c(C)nn2C)cc1F` [Example I-33], the “LogP [a]” value was 3.33^[a];, the “LogP [b]” value was 3.23^[b]; and the “LogP [c]” value was 3.20^[c].
With `C=CCOc1cc(F)c(Nc2c(-c3ccc(F)cc3Cl)c(C)nn2C)cc1F` [Example I-34], the “LogP [a]” value was 3.74^[a];, the “LogP [b]” value was 3.66^[b]; and the “LogP [c]” value was 3.60^[c].
As for `C=CCOc1ccc(Nc2c(-c3ccc(F)cc3Cl)c(C)nn2C)cc1F` [Example I-35], the “LogP [a]” value is 3.61^[a];, the “LogP [b]” value is 3.56^[b]; and the “LogP [c]” value was 3.50^[c].
In the same order, the values of `C#CCOc1ccc(Nc2c(-c3ccc(F)cc3Cl)c(C)nn2C)cc1F` [Example I-36] are 3.17^[a];, 3.14^[b]; and 3.10^[c].
Taken in the same sequence, the figures for `C=CCOc1ccc(F)c(Nc2c(-c3ccc(F)cc3Cl)c(C)nn2C)c1` [Example I-37] were 3.78^[a];, 3.73^[b]; and 3.70^[c].
In the same order, the values of `C#CCOc1ccc(F)c(Nc2c(-c3ccc(F)cc3Cl)c(C)nn2C)c1` [Example I-38] are 3.33^[a];, 3.27^[b]; and 3.20^[c].
For `C#CCOc1cc(F)c(Nc2c(-c3ccc(Cl)cc3Cl)c(C)nn2C)cc1F` [Example I-39], the “LogP [a]” value is 3.70^[a];, the “LogP [b]” value was 3.62^[b]; and the “LogP [c]” value is 3.60^[c].
In the case of `C#CCOc1ccc(Nc2c(-c3ccc(Cl)cc3Cl)c(C)nn2C)c(Cl)c1` [Example I-40], the “LogP [a]” value was 4.13^[a];, the “LogP [b]” value was 4.06^[b]; and the “LogP [c]” value was 4.00^[c].
For `C=CCOc1ccc(Nc2c(-c3ccc(F)cc3Cl)c(C)nn2C)c(Cl)c1` [Example I-41], the “LogP [a]” value is 4.23^[a]; and the “LogP [b]” value was 4.20^[b].
Taken in the same sequence, the figures for `C#CCOc1cc(F)cc(F)c1Nc1c(-c2ccc(F)cc2Br)c(C)nn1C` [Example I-42] were 3.33^[a]; and 3.32^[b].
`C#CCOc1ccccc1Nc1c(-c2ccc(F)cc2Br)c(C)nn1C` [Example I-43]: the “LogP [a]” value was 3.60^[a].
The same measure, in the same setting: the same measure for `C=CCOc1ccc(F)cc1Nc1c(-c2ccc(F)cc2Br)c(C)nn1C` [Example I-44]: 4.08^[a].
Turning to `C#CCOc1ccc(F)cc1Nc1c(-c2ccc(F)cc2Br)c(C)nn1C` [Example I-45], the “LogP [a]” value is 3.64^[a].
Still for that read-out and setting: the result for `C=CCOc1cc(C)ccc1Nc1c(-c2ccc(F)cc2Br)c(C)nn1C` [Example I-46] reads 4.39^[a].
Consider `C#CCOc1cc(C)ccc1Nc1c(-c2ccc(F)cc2Br)c(C)nn1C` [Example I-47], for which the “LogP [a]” value is 3.87^[a].
Take `C=CCOc1ccccc1Nc1c(-c2ccc(F)cc2Cl)c(C)nn1C` [Example I-48]: the “LogP [a]” value is 3.99^[a].
On the same count and under the same terms, the same measure for `C#CCOc1ccccc1Nc1c(-c2ccc(F)cc2Cl)c(C)nn1C` [Example I-49]: 3.53^[a].
The same measure, in the same setting: the result for `C=CCOc1ccc(F)cc1Nc1c(-c2ccc(F)cc2Cl)c(C)nn1C` [Example I-50] reads 4.01^[a].
As for `C#CCOc1ccc(F)cc1Nc1c(-c2ccc(F)cc2Cl)c(C)nn1C` [Example I-51], the “LogP [a]” value was 3.58^[a].
With `C=CCOc1cc(C)ccc1Nc1c(-c2ccc(F)cc2Cl)c(C)nn1C` [Example I-52], the “LogP [a]” value was 4.32^[a].
As to `C#CCOc1cc(C)ccc1Nc1c(-c2ccc(F)cc2Cl)c(C)nn1C` [Example I-53], the “LogP [a]” value is 3.83^[a].
Same read-out and setting: the same measure for `C=CCOc1ccccc1Nc1c(-c2ccc(Cl)cc2Cl)c(C)nn1C` [Example I-54]: 4.49^[a]; for `C#CCOc1ccccc1Nc1c(-c2ccc(Cl)cc2Cl)c(C)nn1C` [Example I-55]: 3.96^[a]; for `C=CCOc1ccc(F)cc1Nc1c(-c2ccc(Cl)cc2Cl)c(C)nn1C` [Example I-56]: 4.49^[a].
Same read-out and setting: the result for `C=CCOc1cc(C)ccc1Nc1c(-c2ccc(Cl)cc2Cl)c(C)nn1C` [Example I-57] reads 4.85^[a].

The same data set, now with this note: LC-UV, acidic range, 0.1% formic acid in water and acetonitrile as eluent; read-out: LogP [a].
`CC(=O)Cc1ccc(O)cc1F` [1-(2-fluoro-4-hydroxyphenyl)acetone]: the chromatographic logP was determined as 1.13.

Still in this data set, the particulars now being: reversed phase HPLC columns, LC-UV, acidic range, 0.1% formic acid in water and acetonitrile as eluent; read-out: LogP [a].
Turning to `C#CCOc1cc(F)cc(F)c1Nc1c(-c2ccc(OCC=C)cc2F)c(C)nn1C` [Example I-22, 4-[4-(Allyloxy)-2-fluorophenyl]-N-[2,4-difluoro-6-(prop-2-yn-1-yloxy)phenyl]-1,3-dimethyl-1H-pyrazol-5-amine], the chromatographic logP worked out at 3.3.

Source of the values: patent publication US10246420B2, “Pyrazole derivatives” (BAYER CROPSCIENCE AKTIENGESELLSCHAFT, priority 2014, dated 2019).
